Measured values: patent US10870647B2, “Imidazopyridine derivative, method for preparing same, and pharmaceutical composition containing same as active ingredient for preventing or treating cancer” (DAEGU-GYEONGBUK MEDICAL INNOVATION FOUNDATION, priority 2016, dated 2020)

Columns and labels:
Assay in all cases: Kinase selectivity, scanMAX Kinase assay panel (DiscoverX), % control at 1 uM
Assay type in all cases: binding
[1] = target: T1, scanMAX Kinase assay panel (Homo sapiens, UniProt P42336, E545A); details: PIK3CA (E545A); 1 uM; read-out: Percent Control (%)
T1 construct: purchased DiscoverX
T1 sequence (P42336 whole entry E545A): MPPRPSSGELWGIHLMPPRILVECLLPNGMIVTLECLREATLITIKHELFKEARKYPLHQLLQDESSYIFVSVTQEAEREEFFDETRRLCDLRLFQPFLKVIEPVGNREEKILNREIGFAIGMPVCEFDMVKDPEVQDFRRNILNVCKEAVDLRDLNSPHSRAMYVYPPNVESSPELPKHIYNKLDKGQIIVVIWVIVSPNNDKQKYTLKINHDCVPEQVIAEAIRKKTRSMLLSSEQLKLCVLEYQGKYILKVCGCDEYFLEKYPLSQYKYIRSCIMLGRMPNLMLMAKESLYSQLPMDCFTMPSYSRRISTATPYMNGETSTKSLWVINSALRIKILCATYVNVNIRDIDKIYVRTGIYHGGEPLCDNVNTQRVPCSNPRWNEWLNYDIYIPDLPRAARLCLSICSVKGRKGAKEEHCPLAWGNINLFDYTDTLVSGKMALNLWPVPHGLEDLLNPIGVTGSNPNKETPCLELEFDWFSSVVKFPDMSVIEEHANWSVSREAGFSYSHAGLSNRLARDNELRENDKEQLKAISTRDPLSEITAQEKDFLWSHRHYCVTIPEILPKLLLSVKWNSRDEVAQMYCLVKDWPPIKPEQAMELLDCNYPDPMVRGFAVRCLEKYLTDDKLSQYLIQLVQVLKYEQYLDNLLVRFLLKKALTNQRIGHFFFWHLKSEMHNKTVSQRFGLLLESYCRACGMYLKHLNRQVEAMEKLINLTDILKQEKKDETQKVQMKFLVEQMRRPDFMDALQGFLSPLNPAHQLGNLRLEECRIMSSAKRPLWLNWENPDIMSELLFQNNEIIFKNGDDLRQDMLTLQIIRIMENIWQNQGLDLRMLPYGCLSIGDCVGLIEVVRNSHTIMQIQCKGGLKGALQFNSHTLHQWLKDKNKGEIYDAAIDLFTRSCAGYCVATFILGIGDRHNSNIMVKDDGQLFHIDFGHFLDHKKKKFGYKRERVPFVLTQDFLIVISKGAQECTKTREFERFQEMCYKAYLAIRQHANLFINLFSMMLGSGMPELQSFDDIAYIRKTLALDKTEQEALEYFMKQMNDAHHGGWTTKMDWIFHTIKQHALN
Summary of the method: (§1)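 Compounds were tested at 1 uM in DMSO against each enzyme in the panel. Percent control was calculated as (compound − positive control)/(negative control − positive control) × 100, and a compound was scored active on a kinase when this value fell below 35.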

[2] = target: T2, scanMAX Kinase assay panel (Homo sapiens, UniProt Q7KZI7); details: MARK2; 1 uM; read-out: Percent Control (%)
T2 construct: purchased DiscoverX
T2 sequence (Q7KZI7 whole entry): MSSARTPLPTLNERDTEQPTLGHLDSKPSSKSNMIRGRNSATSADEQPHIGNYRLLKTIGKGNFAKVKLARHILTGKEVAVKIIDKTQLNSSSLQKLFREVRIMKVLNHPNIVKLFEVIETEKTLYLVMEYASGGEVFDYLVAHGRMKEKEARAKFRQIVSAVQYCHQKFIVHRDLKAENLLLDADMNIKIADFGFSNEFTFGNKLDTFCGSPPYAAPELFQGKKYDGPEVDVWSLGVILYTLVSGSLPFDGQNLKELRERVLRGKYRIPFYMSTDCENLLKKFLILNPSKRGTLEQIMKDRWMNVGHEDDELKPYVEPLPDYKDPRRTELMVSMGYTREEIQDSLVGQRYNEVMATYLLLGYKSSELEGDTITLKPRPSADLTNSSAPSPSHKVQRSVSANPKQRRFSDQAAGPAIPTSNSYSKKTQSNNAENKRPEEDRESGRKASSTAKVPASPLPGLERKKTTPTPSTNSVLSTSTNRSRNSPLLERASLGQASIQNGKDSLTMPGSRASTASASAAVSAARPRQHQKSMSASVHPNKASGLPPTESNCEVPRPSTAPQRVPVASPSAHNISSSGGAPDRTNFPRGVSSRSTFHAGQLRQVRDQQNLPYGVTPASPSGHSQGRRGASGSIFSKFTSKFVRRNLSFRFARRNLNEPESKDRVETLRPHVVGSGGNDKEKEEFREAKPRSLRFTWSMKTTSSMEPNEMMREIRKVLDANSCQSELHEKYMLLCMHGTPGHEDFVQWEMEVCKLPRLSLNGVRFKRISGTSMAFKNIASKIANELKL
Summary of the method: as §1

[3] = target: T3, scanMAX Kinase assay panel (Homo sapiens, UniProt Q8NI60); details: ADCK3; 1 uM; read-out: Percent Control (%)
T3 construct: purchased DiscoverX
T3 sequence (Q8NI60 163-647): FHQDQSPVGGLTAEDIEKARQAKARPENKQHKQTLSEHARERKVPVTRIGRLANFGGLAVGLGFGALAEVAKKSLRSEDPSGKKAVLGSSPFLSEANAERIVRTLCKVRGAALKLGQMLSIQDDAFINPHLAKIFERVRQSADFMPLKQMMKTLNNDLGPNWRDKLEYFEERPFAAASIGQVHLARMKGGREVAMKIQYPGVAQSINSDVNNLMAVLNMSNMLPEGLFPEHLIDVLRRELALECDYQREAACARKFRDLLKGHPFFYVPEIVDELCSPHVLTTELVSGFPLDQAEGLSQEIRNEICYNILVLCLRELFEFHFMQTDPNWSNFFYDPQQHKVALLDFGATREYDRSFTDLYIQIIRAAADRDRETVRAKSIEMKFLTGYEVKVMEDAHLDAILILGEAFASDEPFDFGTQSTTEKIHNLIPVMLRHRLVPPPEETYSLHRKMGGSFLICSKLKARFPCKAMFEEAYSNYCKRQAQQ
Summary of the method: as §1

[4] = target: T4, scanMAX Kinase assay panel (Homo sapiens, UniProt P10721, V559D); details: KIT (V559D); 1 uM; read-out: Percent Control (%)
T4 construct: purchased DiscoverX
T4 sequence (P10721 26-976 V559D): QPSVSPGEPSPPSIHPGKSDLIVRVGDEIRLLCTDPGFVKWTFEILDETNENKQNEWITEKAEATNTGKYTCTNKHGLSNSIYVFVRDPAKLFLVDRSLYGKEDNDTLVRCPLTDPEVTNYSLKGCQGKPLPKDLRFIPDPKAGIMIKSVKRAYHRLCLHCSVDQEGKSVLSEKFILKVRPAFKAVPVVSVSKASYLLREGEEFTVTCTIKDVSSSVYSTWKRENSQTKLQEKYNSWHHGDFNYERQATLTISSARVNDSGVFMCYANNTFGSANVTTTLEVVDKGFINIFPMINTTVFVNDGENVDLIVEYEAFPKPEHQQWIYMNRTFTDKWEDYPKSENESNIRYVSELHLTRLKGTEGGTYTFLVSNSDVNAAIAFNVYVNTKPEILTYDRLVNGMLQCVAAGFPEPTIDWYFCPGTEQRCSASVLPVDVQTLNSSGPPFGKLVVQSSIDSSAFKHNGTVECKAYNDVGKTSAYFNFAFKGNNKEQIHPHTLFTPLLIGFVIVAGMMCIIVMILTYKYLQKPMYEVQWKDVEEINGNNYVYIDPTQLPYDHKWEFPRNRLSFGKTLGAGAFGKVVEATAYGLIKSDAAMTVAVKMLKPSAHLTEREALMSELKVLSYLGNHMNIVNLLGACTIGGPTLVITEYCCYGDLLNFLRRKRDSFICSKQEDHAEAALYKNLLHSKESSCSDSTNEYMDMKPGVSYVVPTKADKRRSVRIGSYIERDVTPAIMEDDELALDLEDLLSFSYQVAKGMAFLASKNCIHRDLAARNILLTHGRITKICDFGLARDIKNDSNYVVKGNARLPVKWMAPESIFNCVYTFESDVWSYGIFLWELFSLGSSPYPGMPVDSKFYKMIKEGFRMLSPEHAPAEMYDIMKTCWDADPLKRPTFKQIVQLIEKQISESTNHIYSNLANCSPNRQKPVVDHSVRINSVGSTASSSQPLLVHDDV
Summary of the method: as §1

[5] = target: T5, scanMAX Kinase assay panel (Homo sapiens, UniProt P57078); details: RIPK4; 1 uM; read-out: Percent Control (%)
T5 construct: purchased DiscoverX
T5 sequence (P57078 1-832): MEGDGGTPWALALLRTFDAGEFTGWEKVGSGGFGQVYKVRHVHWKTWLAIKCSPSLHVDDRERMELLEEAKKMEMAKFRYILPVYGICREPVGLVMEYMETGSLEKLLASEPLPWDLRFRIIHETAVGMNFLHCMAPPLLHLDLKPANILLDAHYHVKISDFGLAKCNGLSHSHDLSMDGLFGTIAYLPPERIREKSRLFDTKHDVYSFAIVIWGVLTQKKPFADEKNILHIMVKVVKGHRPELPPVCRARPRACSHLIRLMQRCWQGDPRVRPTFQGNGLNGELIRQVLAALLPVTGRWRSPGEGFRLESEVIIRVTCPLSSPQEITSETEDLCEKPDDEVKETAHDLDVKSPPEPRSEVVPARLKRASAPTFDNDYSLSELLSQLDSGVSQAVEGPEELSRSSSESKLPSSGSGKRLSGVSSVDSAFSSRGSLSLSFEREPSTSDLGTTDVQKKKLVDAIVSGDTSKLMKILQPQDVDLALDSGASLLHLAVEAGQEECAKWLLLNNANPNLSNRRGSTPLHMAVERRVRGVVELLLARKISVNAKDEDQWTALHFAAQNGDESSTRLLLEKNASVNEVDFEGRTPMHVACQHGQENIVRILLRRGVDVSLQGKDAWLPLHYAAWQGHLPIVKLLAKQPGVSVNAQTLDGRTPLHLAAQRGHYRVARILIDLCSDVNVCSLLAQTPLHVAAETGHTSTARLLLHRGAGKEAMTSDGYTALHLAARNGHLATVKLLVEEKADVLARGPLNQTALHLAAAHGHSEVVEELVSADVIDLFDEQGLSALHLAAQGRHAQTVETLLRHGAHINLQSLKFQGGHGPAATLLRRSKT
Summary of the method: as §1

[6] = target: T6, scanMAX Kinase assay panel (Homo sapiens, UniProt P29320); details: EPHA3; 1 uM; read-out: Percent Control (%)
T6 construct: purchased DiscoverX
T6 sequence (P29320 21-983): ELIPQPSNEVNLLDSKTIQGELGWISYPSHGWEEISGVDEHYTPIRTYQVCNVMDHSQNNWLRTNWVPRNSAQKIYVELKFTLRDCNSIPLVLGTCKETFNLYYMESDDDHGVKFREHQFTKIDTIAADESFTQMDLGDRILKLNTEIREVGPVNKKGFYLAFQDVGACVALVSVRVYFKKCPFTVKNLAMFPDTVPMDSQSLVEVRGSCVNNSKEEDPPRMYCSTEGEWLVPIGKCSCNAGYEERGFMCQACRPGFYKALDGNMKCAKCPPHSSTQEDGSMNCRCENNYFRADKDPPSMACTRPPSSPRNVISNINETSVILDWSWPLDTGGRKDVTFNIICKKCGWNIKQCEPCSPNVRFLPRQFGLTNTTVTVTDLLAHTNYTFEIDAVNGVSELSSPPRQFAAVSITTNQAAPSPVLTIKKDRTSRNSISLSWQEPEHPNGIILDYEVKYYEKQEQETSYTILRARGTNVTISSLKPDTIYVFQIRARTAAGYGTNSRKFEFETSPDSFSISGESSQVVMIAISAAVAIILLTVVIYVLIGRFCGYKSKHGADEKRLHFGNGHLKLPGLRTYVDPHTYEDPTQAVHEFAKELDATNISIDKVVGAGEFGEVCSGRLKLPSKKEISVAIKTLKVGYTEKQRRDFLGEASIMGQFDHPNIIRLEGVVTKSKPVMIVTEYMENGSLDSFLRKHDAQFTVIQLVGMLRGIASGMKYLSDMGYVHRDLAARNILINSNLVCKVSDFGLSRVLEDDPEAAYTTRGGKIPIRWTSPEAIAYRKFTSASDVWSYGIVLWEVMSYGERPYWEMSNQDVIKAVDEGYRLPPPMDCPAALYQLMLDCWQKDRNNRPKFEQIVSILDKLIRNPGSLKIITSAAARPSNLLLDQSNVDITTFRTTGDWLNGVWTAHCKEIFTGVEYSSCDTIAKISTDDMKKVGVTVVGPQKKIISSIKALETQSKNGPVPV
Summary of the method: as §1

[7] = target: T7, scanMAX Kinase assay panel (Homo sapiens, UniProt P49761); details: CLK3; 1 uM; read-out: Percent Control (%)
T7 construct: purchased DiscoverX
T7 sequence (P49761 whole entry): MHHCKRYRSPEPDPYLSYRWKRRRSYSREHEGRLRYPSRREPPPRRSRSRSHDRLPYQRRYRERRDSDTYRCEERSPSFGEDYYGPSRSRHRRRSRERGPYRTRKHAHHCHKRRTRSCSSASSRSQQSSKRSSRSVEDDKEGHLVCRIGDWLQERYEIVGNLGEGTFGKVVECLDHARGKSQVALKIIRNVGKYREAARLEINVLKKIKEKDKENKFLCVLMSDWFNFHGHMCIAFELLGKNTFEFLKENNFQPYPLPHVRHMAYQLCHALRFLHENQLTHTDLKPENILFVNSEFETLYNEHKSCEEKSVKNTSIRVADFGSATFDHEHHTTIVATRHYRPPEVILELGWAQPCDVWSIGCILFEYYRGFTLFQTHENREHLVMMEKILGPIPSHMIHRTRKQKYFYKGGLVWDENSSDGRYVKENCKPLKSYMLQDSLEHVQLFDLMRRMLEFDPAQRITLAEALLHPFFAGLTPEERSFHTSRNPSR
Summary of the method: as §1

[8] = target: T8, scanMAX Kinase assay panel (Homo sapiens, UniProt P49759); details: CLK1; 1 uM; read-out: Percent Control (%)
T8 construct: purchased DiscoverX
T8 sequence (P49759 whole entry): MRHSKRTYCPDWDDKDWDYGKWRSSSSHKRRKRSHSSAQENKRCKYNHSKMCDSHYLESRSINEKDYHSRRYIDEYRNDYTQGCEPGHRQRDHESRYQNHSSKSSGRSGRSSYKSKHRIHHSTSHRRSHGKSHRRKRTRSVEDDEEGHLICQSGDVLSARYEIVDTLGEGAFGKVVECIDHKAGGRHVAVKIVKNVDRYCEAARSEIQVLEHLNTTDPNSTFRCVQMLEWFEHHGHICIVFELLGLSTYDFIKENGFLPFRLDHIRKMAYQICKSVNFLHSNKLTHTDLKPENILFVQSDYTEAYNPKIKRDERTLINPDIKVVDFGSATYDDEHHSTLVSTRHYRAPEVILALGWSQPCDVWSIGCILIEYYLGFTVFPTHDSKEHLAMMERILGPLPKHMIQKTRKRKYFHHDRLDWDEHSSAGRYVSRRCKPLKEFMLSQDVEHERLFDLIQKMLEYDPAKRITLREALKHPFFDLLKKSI
Summary of the method: as §1

Row | SMILES | remaining binding at 1 µM [1] [%] | remaining binding at 1 µM [2] [%] | remaining binding at 1 µM [3] [%] | remaining binding at 1 µM [4] [%] | remaining binding at 1 µM [5] [%] | remaining binding at 1 µM [6] [%] | remaining binding at 1 µM [7] [%] | remaining binding at 1 µM [8] [%]
1 | Cc1ccc(C(=O)Nc2ccc(CN3CCN(C)CC3)c(C(F)(F)F)c2)cc1C#Cc1cnc2c(Nc3cnn(C)c3)cccn12 [Example 1, 4-methyl-3-((8-((1-methyl-1H-pyrazol-4-yl)amino)imidazo[1,2-a]pyridin-3-yl)ethynyl)-N-(4-((4-methylpiperazin-1-yl)methyl)-3-(trifluoromethyl)phenyl)benzamide] | 87 | 73 | 100 | 0 | 13 | 19 | 48 | 25
2 | Cc1cn(-c2cc(NC(=O)c3ccc(C)c(C#Cc4cnc5c(Nc6cnn(C)c6)cccn45)c3)cc(C(F)(F)F)c2)cn1 [Example 12, 4-methyl-N-(3-(4-methyl-1H-imidazol-1-yl)-5-(trifluoromethyl)phenyl)-3-((8-((1-methyl-1H-pyrazol-4-yl)amino)imidazo[1,2-a]pyridin-3-yl)ethynyl)benzamide] | 79 | 99 | 93 | 1 | 100 | 27 | 100 | 82
3 | Cc1ccc(NC(=O)C2(C(=O)Nc3ccc(F)cc3)CC2)cc1C#Cc1cnc2c(Nc3cnn(C(C)C)c3)cccn12 [Example 78] | 100 | 89 | 100 | 0 | 100 | 76 | 100 | 79
